What was measured:
Format in all cases: biochemical
[1] = target: T1, JNK1 (Homo sapiens, UniProt P45983); assay: 33PanQinase radiometric kinase assay, JNK1 (off-target); conditions: ratio IC50(off-target)/IC50(MKK4)
T1 construct: purchased ProQinase GmbH, Freiburg, Germany (assay service)
Procedure: (§1) The kinase activities of the compounds of the invention were measured using the 33PanQinase® Assay Service provided by ProQinase GmbH, Freiburg, Germany. Details of the assay conditions are disclosed on the website of ProQinase (https://www.proqinase.com/products-services-biochemical-assay-services/kinase-assays). In brief, all kinase assays were performed in 96-well FlashPlates™ from PerkinElmer (Boston, MA, USA) in a 50 μl reaction volume. The reaction cocktail was pipetted in four steps in the following order: • 20 μl of assay buffer (standard buffer) • 5 μl of ATP solution (in H2O) • 5 μl of test compound (in 10% DMSO) • 20 μl enzyme/substrate mix
(§2) The reaction cocktails were incubated at 30° C. for 60 minutes. The reaction is stopped with 50 μl of 2% (v/v) H3PO4, plates were aspirated and washed two times with 200 μl 0.9% (w/v) NaCl. Incorporation of ^33Pi was determined with a microplate scintillation counter (Microbeta, Wallac).
(§3) All assays were performed with a BeckmanCoulter/SAGIAN™ Core System.
(§4) In case of single concentration assays, the potency of the test compound is expressed as % residual activity. […] The fitting method used was a least-squares fit.
(§5) Selectivity of test compounds against BRaf, JNK1 and MKK7, altogether denominated as off-targets was calculated by the ratio of IC50 (off-target)/IC50 (MKK4) and categorized as follows: […]

[2] = target: T2, MKK7 (Homo sapiens, UniProt O14733); assay: 33PanQinase radiometric kinase assay, MKK7 (off-target); conditions: ratio IC50(off-target)/IC50(MKK4)
T2 construct: purchased ProQinase GmbH, Freiburg, Germany (assay service)
T2 sequence (O14733 1-419): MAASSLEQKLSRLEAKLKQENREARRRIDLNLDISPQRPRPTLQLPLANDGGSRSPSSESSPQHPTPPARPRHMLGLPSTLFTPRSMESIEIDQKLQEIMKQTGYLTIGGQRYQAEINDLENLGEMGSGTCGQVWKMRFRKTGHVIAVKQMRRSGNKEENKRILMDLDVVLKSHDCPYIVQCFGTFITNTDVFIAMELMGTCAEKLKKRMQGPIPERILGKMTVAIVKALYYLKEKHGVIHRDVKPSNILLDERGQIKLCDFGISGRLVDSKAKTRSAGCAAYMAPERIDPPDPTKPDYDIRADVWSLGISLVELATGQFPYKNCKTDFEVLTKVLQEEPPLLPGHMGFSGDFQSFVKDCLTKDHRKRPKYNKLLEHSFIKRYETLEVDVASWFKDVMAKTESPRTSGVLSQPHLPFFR
Procedure: as §1, §2, §3, §4, §5

[3] = target: T3, BRaf (Homo sapiens, UniProt P15056); assay: 33PanQinase radiometric kinase assay, BRaf (off-target); conditions: ratio IC50(off-target)/IC50(MKK4)
T3 construct: purchased ProQinase GmbH, Freiburg, Germany (assay service)
T3 sequence (P15056 whole entry): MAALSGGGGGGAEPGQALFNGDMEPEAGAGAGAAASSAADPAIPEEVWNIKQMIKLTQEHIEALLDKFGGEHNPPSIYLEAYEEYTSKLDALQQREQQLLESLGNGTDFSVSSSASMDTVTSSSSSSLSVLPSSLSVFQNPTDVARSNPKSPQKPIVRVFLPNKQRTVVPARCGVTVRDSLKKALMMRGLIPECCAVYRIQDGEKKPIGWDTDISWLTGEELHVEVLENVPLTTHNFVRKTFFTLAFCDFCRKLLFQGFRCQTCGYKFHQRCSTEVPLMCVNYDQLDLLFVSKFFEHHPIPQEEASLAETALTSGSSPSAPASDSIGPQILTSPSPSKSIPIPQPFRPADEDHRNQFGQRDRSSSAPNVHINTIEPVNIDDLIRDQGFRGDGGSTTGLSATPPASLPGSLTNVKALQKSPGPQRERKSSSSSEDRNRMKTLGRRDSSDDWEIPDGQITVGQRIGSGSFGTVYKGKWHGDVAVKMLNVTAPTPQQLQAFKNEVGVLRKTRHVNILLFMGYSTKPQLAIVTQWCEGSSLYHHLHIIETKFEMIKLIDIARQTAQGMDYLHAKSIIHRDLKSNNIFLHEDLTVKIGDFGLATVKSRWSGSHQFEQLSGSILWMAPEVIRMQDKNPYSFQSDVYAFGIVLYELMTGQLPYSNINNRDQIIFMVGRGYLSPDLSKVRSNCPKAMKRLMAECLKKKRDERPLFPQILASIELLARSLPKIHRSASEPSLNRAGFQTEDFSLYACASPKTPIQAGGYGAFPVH
Procedure: as §1, §2, §3, §4, §5

[4] = target: T4, MKK4 (Homo sapiens, UniProt P45985); assay: 33PanQinase radiometric kinase assay, MKK4; conditions: category based on IC50-values; ATP at apparent Km; read-out: Potency MKK4
T4 construct: purchased ProQinase GmbH, Freiburg, Germany (assay service)
T4 sequence (P45985 1-399): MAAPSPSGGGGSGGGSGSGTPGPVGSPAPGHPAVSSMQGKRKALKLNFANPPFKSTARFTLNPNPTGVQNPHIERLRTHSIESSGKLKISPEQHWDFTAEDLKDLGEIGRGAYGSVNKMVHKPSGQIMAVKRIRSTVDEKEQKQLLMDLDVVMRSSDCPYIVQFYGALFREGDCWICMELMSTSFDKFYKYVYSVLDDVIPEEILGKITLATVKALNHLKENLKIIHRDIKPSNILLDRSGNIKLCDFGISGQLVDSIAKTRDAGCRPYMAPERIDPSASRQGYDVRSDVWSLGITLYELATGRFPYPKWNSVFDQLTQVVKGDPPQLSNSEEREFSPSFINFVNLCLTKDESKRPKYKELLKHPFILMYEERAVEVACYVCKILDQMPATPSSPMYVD
Procedure: as §1, §2, §3, §4

T1 sequence (P45983 whole entry): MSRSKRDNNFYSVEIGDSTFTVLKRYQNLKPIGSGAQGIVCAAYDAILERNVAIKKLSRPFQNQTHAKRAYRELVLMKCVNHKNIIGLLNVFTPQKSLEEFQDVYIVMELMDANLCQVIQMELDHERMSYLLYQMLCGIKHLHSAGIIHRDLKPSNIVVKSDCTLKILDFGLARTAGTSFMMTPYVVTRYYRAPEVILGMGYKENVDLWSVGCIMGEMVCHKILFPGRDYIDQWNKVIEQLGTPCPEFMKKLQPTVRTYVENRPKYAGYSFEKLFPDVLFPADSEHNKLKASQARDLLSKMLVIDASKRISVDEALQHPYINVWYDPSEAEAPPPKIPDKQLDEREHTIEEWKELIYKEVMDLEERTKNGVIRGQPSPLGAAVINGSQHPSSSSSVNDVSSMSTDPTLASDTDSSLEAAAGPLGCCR

Row | Structure (SMILES) | Selectivity JNK1 [1] | Selectivity MKK7 [2] | Selectivity Braf [3] | IC50 [4] [nM]
1 | CCCS(=O)(=O)Nc1c(F)ccc(C(=O)c2n[nH]c3ncc(-c4cnc(C(C)(C)C)nc4)cc23)c1F [Example 21, N-(3-(5-(2-(tert-butyl)pyrimidin-5-yl)-1H-pyrazolo[3,4-b]pyridine-3-carbonyl)-2,6-difluorophenyl)propane-1-sulfonamide] | +++ (IC50(off-target)/IC50(MKK4) > 100) | +++ (IC50(off-target)/IC50(MKK4) > 100) | +++ (IC50(off-target)/IC50(MKK4) > 100) | < 100
2 | CCCS(=O)(=O)Nc1c(F)ccc(C(=O)c2n[nH]c3ncc(-c4cnc(SC)nc4)cc23)c1F [Example 22, N-(2,6-difluoro-3-(5-(2-(methylthio)pyrimidin-5-yl)-1H-pyrazolo[3,4-b]pyridine-3-carbonyl)phenyl)propane-1-sulfonamide] | +++ (IC50(off-target)/IC50(MKK4) > 100) | +++ (IC50(off-target)/IC50(MKK4) > 100) | +++ (IC50(off-target)/IC50(MKK4) > 100) | < 100
3 | CCCS(=O)(=O)Nc1c(F)ccc(C(=O)c2n[nH]c3ncc(-c4cnc(C(C)C)nc4)cc23)c1F [Example 23, N-(2,6-difluoro-3-(5-(2-isopropylpyrimidin-5-yl)-1H-pyrazolo[3,4-b]pyridine-3-carbonyl)phenyl)propane-1-sulfonamide] | +++ (IC50(off-target)/IC50(MKK4) > 100) | +++ (IC50(off-target)/IC50(MKK4) > 100) | +++ (IC50(off-target)/IC50(MKK4) > 100) | < 100
4 | CCCS(=O)(=O)Nc1c(F)ccc(C(=O)c2n[nH]c3ncc(-c4cccnc4)cc23)c1F [Example 27, N-(2,6-difluoro-3-(5-(pyridin-3-yl)-1H-pyrazolo[3,4-b]pyridine-3-carbonyl)phenyl)propane-1-sulfonamide] | +++ (IC50(off-target)/IC50(MKK4) > 100) | +++ (IC50(off-target)/IC50(MKK4) > 100) | +++ (IC50(off-target)/IC50(MKK4) > 100) | < 100
5 | CCCS(=O)(=O)Nc1c(F)ccc(C(=O)c2n[nH]c3ncc(-c4ccc(C(=O)O)nc4)cc23)c1F [Example 28, 5-(3-(2,4-difluoro-3-(propylsulfonamido)benzoyl)-1H-pyrazolo[3,4-b]pyridin-5-yl)picolinic acid] | +++ (IC50(off-target)/IC50(MKK4) > 100) | ++ (100 ≥ IC50(off-target)/IC50(MKK4) > 10) | +++ (IC50(off-target)/IC50(MKK4) > 100) | < 100
6 | CCCS(=O)(=O)Nc1c(F)ccc(C(=O)c2n[nH]c3ncc(-c4cncnc4C)cc23)c1F [Example 29, N-[2,6-difluoro-3-[5-(4-methylpyrimidin-5-yl)-1H-pyrazolo[3,4-b]pyridine-3-carbonyl]phenyl]propane-1-sulfonamide] | +++ (IC50(off-target)/IC50(MKK4) > 100) | +++ (IC50(off-target)/IC50(MKK4) > 100) | +++ (IC50(off-target)/IC50(MKK4) > 100) | 100 to 1000
7 | CCCS(=O)(=O)Nc1c(F)ccc(C(=O)c2n[nH]c3ncc(-c4cnc(C)nc4C)cc23)c1F [Example 30, N-[3-[5-(2,4-dimethylpyrimidin-5-yl)-1H-pyrazolo[3,4-b]pyridine-3-carbonyl]-2,6-difluoro-phenyl]propane-1-sulfonamide] | +++ (IC50(off-target)/IC50(MKK4) > 100) | +++ (IC50(off-target)/IC50(MKK4) > 100) | +++ (IC50(off-target)/IC50(MKK4) > 100) | 100 to 1000
8 | CCCS(=O)(=O)Nc1c(F)ccc(C(=O)c2n[nH]c3ncc(-c4cnc(C5CC5)nc4C)cc23)c1F [Example 31, N-(3-(5-(2-cyclopropyl-4-methylpyrimidin-5-yl)-1H-pyrazolo[3,4-b]pyridine-3 carbonyl)-2,6-difluorophenyl)propane-1-sulfonamide] | +++ (IC50(off-target)/IC50(MKK4) > 100) | +++ (IC50(off-target)/IC50(MKK4) > 100) | +++ (IC50(off-target)/IC50(MKK4) > 100) | 100 to 1000
9 | CCCS(=O)(=O)Nc1c(F)ccc(C(=O)c2n[nH]c3ncc(-c4cnc(C5CC5)nc4SC)cc23)c1F [Example 32, N-(3-(5-(2-cyclopropyl-4-(methylthio)pyrimidin-5-yl)-1H-pyrazolo[3,4-b]pyridine-3 carbonyl)-2,6-difluorophenyl)propane-1-sulfonamide] | +++ (IC50(off-target)/IC50(MKK4) > 100) | +++ (IC50(off-target)/IC50(MKK4) > 100) | +++ (IC50(off-target)/IC50(MKK4) > 100) | 100 to 1000
10 | CCCS(=O)(=O)Nc1c(F)ccc(C(=O)c2n[nH]c3ncc(-c4cnc(SC)nc4C)cc23)c1F [Example 33, N-[2,6-difluoro-3-[5-(4-methyl-2-methylsulfanyl-pyrimidin-5-yl)-1H-pyrazolo[3,4-b]pyridine-3-carbonyl]phenyl]propane-1-sulfonamide] | +++ (IC50(off-target)/IC50(MKK4) > 100) | +++ (IC50(off-target)/IC50(MKK4) > 100) | +++ (IC50(off-target)/IC50(MKK4) > 100) | < 100
11 | CCCS(=O)(=O)Nc1c(F)ccc(C(=O)c2n[nH]c3ncc(-c4cnc(OC)nc4OC)cc23)c1F [Example 34, N-[3-[5-(2,4-dimethoxypyrimidin-5-yl)-1H-pyrazolo[3,4-b]pyridine-3-carbonyl]-2,6-difluoro-phenyl]propane-1-sulfonamide] | +++ (IC50(off-target)/IC50(MKK4) > 100) | +++ (IC50(off-target)/IC50(MKK4) > 100) | +++ (IC50(off-target)/IC50(MKK4) > 100) | < 100
12 | CCCS(=O)(=O)Nc1c(F)cc(F)c(C(=O)c2n[nH]c3ncc(-c4cnc(C5CC5)nc4)cc23)c1F [Example 35, N-(3-(5-(2-cyclopropylpyrimidin-5-yl)-1H-pyrazolo[3,4-b]pyridine-3-carbonyl)-2,4,6-trifluorophenyl)propane-1-sulfonamide] | +++ (IC50(off-target)/IC50(MKK4) > 100) | +++ (IC50(off-target)/IC50(MKK4) > 100) | +++ (IC50(off-target)/IC50(MKK4) > 100) | < 100
13 | CCCS(=O)(=O)Nc1c(F)ccc(C(=O)c2n[nH]c3ncc(-c4ccncc4CC)cc23)c1F [Example 36, N-[3-[5-(3-ethyl-4-pyridyl)-1H-pyrazolo[3,4-b]pyridine-3-carbonyl]-2,6-difluoro-phenyl]propane-1-sulfonamide] | +++ (IC50(off-target)/IC50(MKK4) > 100) | +++ (IC50(off-target)/IC50(MKK4) > 100) | +++ (IC50(off-target)/IC50(MKK4) > 100) | < 100
14 | CCCS(=O)(=O)Nc1c(F)ccc(C(=O)c2n[nH]c3ncc(-c4ccncc4C#N)cc23)c1F [Example 37, N-[3-[5-(3-cyano-4-pyridyl)-1H-pyrazolo[3,4-b]pyridine-3-carbonyl]-2,6-difluoro-phenyl]propane-1-sulfonamide] | +++ (IC50(off-target)/IC50(MKK4) > 100) | +++ (IC50(off-target)/IC50(MKK4) > 100) | +++ (IC50(off-target)/IC50(MKK4) > 100) | < 100

From patent publication US12643895B2, “Heteroaryl-substituted pyrazolo-pyridine protein kinase inhibitors for promoting liver regeneration or reducing or preventing hepatocyte death” (HepaRegeniX GmbH, priority 2019, dated 2026)
